The values that follow come from patent US20240116937A1, “Polymorph of (1S,2S,3S,5R)-3-((6-(difluoromethyl)-5-fluoro-1,2,3,4-tetrahydroisoquinolin-8-yl)oxy)-5-(4-methyl-7H-pyrrolo[2,3-D]pyrimidin-7-yl)cyclopentane-1,2-diol” (Pfizer Inc., priority 2020, published 2024).

SMILES strings stand for the structures.

The nature of this series: Hygroscopicity: % mass change (ref dry mass) versus RH, free base compared to hydrochloride salt. The class given is physicochemical. From the text:
Hygroscopicity of Free Base (1S,2S,3S,5R)-3-((6-(difluoromethyl)-5-fluoro-1,2,3,4-tetrahydroisoquinolin-8-yl)oxy)-5-(4-methyl-7H-pyrrolo[2,3-d]pyrimidin-7-yl)cyclopentane-1,2-diol Compared to Crystalline (1S,2S,3S,5R)-3-((6-(difluoromethyl)-5-fluoro-1,2,3,4-tetrahydroisoquinolin-8-yl)oxy)-5-(4-methyl-7H-pyrrolo[2,3-d]pyrimidin-7-yl)cyclopentane-1,2-diol hydrochloride salt

On to `Cc1ncnc2c1ccn2[C@@H]1C[C@H](Oc2cc(C(F)F)c(F)c3c2CNCC3)[C@@H](O)[C@H]1O` [Free Base, (1S,2S,3S,5R)-3-((6-(difluoromethyl)-5-fluoro-1,2,3,4-tetrahydroisoquinolin-8-yl)oxy)-5-(4-methyl-7H-pyrrolo[2,3-d]pyrimidin-7-yl)cyclopentane-1,2-diol], for which the “physical stability (hygroscopicity) relative to the dihydrochloride salt of WO2017/212385” value is “low hygroscopicity”. In addition, the “% Mass-Ref Dry mass” value (RH 10) amounted to 0.1%. The “% Mass-Ref Dry mass” value (RH 20) came out at 0.3%. Also, under “RH 30”, the “% Mass-Ref Dry mass” value was found to be 0.4%. In addition, under “RH 40”, the “% Mass-Ref Dry mass” value was 1.8%. The “% Mass-Ref Dry mass” value (RH 50) is listed as 2.0%. For the same compound, the “% Mass-Ref Dry mass” value (RH 60) is given as 2.1%. In addition, the “% Mass-Ref Dry mass” value (RH 70) came to 2.2%. Further, the “% Mass-Ref Dry mass” value (RH 80) came to 2.2%. The “% Mass-Ref Dry mass” value (RH 90) came out at 2.3%.
